Values after ≈ are worked out from the molar mass of the structure shown.
Experiments:
[1] = Kinetic solubility in PBS at pH 7.4 by chemiluminescent nitrogen detection assay
[2] = molecular target: T1, NAD-dependent protein deacetylase sirtuin-2 (Homo sapiens, UniProt Q8IXJ6); assay: Inhibition of His-tagged SIRT2 (1 to 389) (unknown origin)-mediated deacetylation of Ac-RHKKAcW-NH2 substrate incubated for 20 mins prior to substrate addition measured after 30 mins by mass spectrophotometric analysis
T1 sequence (Q8IXJ6 whole entry): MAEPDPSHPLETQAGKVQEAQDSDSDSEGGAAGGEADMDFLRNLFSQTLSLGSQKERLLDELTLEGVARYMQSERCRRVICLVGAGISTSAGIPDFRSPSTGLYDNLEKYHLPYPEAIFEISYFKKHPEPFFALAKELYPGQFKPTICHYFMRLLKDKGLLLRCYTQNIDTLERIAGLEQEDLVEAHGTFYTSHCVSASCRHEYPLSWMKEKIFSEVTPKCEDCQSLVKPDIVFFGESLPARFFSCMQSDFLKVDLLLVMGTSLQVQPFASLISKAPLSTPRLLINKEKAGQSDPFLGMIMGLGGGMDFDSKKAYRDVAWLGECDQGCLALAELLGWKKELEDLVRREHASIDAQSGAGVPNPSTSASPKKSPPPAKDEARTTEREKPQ

[3] = molecular target: T2, NAD-dependent protein deacetylase sirtuin-1 (Homo sapiens, UniProt Q96EB6); assay: Inhibition of His-tagged SIRT1 (1 to 747) (unknown origin)-mediated deacetylation of Ac-RHKKAcW-NH2 substrate preincubated for 20 mins measured after 30 mins by mass spectrophotometric analysis
T2 sequence (Q96EB6 whole entry): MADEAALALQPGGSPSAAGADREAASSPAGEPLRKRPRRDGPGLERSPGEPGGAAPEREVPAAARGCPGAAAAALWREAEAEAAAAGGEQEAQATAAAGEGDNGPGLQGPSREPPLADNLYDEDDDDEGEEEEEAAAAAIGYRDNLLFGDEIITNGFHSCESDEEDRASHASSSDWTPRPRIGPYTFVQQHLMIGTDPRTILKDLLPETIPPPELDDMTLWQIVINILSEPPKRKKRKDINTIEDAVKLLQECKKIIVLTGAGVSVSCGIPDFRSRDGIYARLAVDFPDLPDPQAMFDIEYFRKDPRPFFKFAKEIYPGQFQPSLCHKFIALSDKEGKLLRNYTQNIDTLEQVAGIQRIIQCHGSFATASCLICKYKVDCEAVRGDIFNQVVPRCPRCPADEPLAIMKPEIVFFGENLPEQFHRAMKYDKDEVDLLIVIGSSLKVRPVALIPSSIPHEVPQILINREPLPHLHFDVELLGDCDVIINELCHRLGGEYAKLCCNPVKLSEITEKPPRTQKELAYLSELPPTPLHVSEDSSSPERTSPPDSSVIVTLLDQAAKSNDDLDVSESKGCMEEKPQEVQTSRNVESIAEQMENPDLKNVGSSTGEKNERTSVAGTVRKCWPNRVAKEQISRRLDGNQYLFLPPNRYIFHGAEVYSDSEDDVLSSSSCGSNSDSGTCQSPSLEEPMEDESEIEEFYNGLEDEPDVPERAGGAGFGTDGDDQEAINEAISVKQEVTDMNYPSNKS

[4] = molecular target: T3, NAD-dependent protein deacetylase sirtuin-3, mitochondrial (Homo sapiens, UniProt Q9NTG7); assay: Inhibition of human His-tagged SIRT3 (102 to 399) expressed in Escherichia coli BL21(DE3) assessed as inhibition of deacetylation of Ac-RHKKAcW-NH2 substrate preincubated for 20 mins measured after 30 mins by mass spectrophotometric analysis
T3 sequence (Q9NTG7 whole entry): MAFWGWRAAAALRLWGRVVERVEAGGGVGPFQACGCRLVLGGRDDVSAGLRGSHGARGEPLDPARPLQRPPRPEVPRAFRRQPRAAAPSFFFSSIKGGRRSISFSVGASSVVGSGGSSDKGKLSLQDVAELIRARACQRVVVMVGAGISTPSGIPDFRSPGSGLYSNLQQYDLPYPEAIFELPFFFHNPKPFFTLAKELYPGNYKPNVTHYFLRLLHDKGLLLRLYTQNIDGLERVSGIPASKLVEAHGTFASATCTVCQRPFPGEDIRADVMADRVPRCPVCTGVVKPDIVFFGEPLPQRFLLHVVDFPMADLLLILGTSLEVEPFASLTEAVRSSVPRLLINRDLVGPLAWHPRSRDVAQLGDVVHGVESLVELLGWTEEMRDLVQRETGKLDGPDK

[5] = molecular target: T3, NAD-dependent protein deacetylase sirtuin-3, mitochondrial; assay: Inhibition of His-tagged SIRT3 (unknown origin) using KI179 as substrate after 1 hr by spectrophotometric analysis
[6] = molecular target: T2, NAD-dependent protein deacetylase sirtuin-1; assay: Inhibition of GST-tagged SIRT1 (unknown origin) using KI177 as substrate after 1 hr by spectrophotometric analysis
Cytochrome P450 2D6 = Cytochrome P450 2D6 (Homo sapiens, UniProt P10635); assay: Inhibition of CYP2D6 (unknown origin); type: ADME
Chain of Cytochrome P450 2D6 (P10635 whole entry): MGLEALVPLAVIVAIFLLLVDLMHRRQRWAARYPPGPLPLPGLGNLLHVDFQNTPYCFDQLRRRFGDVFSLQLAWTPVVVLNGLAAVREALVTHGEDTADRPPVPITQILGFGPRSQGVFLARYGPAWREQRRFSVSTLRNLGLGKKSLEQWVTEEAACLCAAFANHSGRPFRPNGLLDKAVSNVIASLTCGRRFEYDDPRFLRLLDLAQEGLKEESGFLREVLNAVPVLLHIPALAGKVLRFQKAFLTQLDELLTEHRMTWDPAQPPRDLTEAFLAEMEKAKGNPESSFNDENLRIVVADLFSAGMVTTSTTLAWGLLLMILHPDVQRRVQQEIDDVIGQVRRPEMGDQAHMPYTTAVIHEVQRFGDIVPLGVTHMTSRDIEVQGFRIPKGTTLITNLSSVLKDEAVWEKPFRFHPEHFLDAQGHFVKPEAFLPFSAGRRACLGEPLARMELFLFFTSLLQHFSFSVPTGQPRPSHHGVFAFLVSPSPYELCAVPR

Cytochrome P450 2C19 = Cytochrome P450 2C19 (Homo sapiens, UniProt P33261); assay: Inhibition of CYP2C19 (unknown origin); type: ADME
Chain of Cytochrome P450 2C19 (P33261 whole entry): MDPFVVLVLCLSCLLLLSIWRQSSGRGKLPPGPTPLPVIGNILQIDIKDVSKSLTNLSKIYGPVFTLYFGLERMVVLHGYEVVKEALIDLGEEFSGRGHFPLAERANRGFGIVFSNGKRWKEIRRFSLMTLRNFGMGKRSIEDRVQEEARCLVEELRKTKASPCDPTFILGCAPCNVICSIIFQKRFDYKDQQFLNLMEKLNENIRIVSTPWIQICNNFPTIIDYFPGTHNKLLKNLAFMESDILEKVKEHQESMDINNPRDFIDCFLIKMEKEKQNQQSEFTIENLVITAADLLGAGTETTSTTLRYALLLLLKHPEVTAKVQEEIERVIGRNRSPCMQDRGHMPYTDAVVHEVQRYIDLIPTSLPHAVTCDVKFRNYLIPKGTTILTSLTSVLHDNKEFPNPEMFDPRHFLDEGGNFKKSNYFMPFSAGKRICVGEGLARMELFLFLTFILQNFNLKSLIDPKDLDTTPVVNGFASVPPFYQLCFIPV

Cytochrome P450 1A2 = molecular target: T4, Cytochrome P450 1A2 (Homo sapiens, UniProt P05177); assay: Inhibition of CYP1A2 (unknown origin); type: ADME
T4 sequence (P05177 whole entry): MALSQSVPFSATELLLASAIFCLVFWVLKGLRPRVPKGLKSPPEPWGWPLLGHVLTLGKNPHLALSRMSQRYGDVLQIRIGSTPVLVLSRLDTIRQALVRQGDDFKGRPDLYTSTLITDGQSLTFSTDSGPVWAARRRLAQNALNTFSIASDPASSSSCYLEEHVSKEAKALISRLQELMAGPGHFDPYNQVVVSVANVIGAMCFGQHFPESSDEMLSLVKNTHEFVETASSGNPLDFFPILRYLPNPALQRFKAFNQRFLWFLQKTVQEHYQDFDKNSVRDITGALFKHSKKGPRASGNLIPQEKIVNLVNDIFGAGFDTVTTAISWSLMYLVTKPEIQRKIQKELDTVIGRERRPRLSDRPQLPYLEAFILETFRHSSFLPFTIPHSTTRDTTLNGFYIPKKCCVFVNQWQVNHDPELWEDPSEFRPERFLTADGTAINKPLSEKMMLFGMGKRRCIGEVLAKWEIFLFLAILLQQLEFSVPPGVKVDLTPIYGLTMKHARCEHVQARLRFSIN

[7] = Intrinsic clearance in mouse liver microsomes measured per mg of protein; type: ADME, Microsome; conditions: read-out: CLH
Cytochrome P450 3A4 = Cytochrome P450 3A4 (Homo sapiens, UniProt P08684); assay: Inhibition of CYP3A4 (unknown origin); type: ADME
Chain of Cytochrome P450 3A4 (P08684 whole entry): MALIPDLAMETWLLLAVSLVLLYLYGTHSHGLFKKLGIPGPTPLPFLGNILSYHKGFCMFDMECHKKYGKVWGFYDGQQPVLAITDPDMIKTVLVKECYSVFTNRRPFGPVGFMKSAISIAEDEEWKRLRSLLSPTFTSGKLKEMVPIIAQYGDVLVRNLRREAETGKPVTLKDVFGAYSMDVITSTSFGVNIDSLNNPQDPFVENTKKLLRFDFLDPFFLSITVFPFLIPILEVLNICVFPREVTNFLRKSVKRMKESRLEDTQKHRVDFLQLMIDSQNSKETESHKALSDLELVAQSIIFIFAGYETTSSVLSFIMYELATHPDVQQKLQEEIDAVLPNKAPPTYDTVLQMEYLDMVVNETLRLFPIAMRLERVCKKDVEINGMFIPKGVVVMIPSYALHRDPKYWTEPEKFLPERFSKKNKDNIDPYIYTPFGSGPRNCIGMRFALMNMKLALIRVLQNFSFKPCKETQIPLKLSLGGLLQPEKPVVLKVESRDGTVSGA

[8] = Intrinsic clearance in human liver microsomes measured per mg of protein; type: ADME, Microsome; conditions: read-out: CLH
[9] = molecular target: Voltage-gated inwardly rectifying potassium channel KCNH2 (Homo sapiens, UniProt Q12809); assay: Inhibition of human ERG by dofetilide binding assay
Chain of Voltage-gated inwardly rectifying potassium channel KCNH2 (Q12809 whole entry): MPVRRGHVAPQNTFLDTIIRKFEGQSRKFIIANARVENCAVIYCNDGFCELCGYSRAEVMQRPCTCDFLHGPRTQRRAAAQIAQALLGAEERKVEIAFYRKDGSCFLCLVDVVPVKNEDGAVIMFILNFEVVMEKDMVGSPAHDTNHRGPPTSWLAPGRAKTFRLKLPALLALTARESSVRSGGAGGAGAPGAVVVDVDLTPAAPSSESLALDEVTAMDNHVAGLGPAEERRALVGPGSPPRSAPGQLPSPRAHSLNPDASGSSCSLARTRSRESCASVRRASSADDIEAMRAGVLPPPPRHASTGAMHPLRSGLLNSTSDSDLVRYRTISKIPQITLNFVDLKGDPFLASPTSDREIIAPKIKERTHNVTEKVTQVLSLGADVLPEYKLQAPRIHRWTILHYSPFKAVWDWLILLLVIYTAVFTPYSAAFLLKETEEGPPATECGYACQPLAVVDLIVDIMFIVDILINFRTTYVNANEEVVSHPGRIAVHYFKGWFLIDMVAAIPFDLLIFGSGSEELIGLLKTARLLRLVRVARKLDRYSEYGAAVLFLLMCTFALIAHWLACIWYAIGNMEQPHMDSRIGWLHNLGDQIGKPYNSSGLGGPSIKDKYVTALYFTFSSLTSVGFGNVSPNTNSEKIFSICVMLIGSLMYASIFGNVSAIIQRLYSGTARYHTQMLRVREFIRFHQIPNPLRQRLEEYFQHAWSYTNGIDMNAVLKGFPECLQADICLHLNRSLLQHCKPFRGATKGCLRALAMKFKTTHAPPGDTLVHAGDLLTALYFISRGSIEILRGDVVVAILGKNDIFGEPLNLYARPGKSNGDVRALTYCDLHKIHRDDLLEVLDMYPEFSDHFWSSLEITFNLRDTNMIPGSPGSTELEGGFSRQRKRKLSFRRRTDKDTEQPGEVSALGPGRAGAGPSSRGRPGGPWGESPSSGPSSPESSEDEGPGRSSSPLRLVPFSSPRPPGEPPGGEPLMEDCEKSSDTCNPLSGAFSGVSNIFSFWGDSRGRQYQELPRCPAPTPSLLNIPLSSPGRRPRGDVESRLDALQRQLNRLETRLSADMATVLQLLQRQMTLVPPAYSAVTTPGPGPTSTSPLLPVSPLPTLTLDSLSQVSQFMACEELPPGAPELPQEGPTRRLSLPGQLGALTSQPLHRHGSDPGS

Compound | solubility kinetic [1] | IC50 [2] | IC50 [3] | further results
CCNC(=O)c1cccc(C(=O)NCCN2CCN(c3ncnc4cc(C(N)=O)sc34)CC2)c1 | 220 µM (≈ 106 µg/mL) |  |  | 
NC(=O)c1cc2ncnc(N3CCC(CCNC(=O)c4cccs4)CC3)c2s1 |  | 6.5 nM | 5.8 nM | 
CCNC(=O)c1cccc(C(=O)NCCC2CCN(c3ncnc4cc(C(N)=O)sc34)CC2)c1 | 19 µM (≈ 9.13 µg/mL) | 1.3 nM | 5.3 nM | IC50 [4]: 4.9 nM
NC(=O)c1cc2ncnc(N3CCC(CCNC(=O)c4ccc(C(=O)O)s4)CC3)c2s1 |  | 4.4 nM |  | 
CS(=O)(=O)NCCC1CCN(c2ncnc3cc(C(N)=O)sc23)CC1 |  | 1.1 nM |  | 
CCNC(=O)c1ccc(C(=O)NCCC2CCN(c3ncnc4cc(C(N)=O)sc34)CC2)s1 | 9 µM (≈ 4.38 µg/mL) |  |  | 
CCNC(=O)c1ccc(C(=O)NCCN2CCN(c3ncnc4cc(C(N)=O)sc34)CC2)s1 | 65 µM (≈ 31.7 µg/mL) | 4.8 nM |  | 
CC(C)(C)C(=O)NCCC1CCN(c2ncnc3cc(C(=O)O)sc23)CC1 |  | > 50000 nM | > 50000 nM | 
CCCCC[C@H]1CC(=O)c2cc(Cl)cc(Br)c2O1 |  |  |  | IC50 [5]: > 200000 nM; IC50 [6]: > 200000 nM
CC(C)(C)OC(=O)NCCC1CCN(c2ncnc3cc(C(N)=O)sc23)CC1 |  | 5.4 nM |  | 
CC(C)(C)C(=O)NCCC1CCN(c2ncnc3cc(C(N)=O)sc23)CC1 | 297 µM (≈ 116 µg/mL) |  |  | IC50 (Cytochrome P450 2D6): > 50000 nM; IC50 (Cytochrome P450 2C19): > 50000 nM; IC50 (Cytochrome P450 1A2): > 50000 nM; microsomal CLint [7]: 12.7 µL/min/mg; IC50 (Cytochrome P450 3A4): > 50000 nM; microsomal CLint [8]: 15.8 µL/min/mg; IC50 [9]: > 50000 nM
CC(C)(C)OC(=O)c1ccc(C(=O)NCCC2CCN(c3ncnc4cc(C(N)=O)sc34)CC2)s1 |  | 1.8 nM | 6.7 nM | 

From ChEMBL document CHEMBL2331260, “Discovery of thieno[3,2-d]pyrimidine-6-carboxamides as potent inhibitors of SIRT1, SIRT2, and SIRT3” (J Med Chem, 2013)
